US20250129021A1, “SMALL MOLECULE PROTEIN SYNTHESIS MODULATORS” (Interdict Bio, Inc., priority 2023, published 2025)
pIC50: −log10 of the molar value.

What was measured:
Type in all cases: biochemical
[1] = test system: MYC; assay: In vitro transcription-translation (IVTT) assay, MYC reporter; conditions: HeLa S3 lysate, 2 hrs at 30° C.
Summary of the method: (§1)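 Reporter: mCherry, P2A, then 3×FLAG-target peptide-sfGFP fusion, IRES-initiated; HeLa S3 lysate IVTT; cpd dilutions 30 μM−0.1 μM half-log in 100% DMSO (dilution-plate conc); DNA added last; 2 h, 30° C; PBS quench.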

[2] = test system: CCND1; assay: In vitro transcription-translation (IVTT) assay, CCND1 reporter; conditions: HeLa S3 lysate, 2 hrs at 30° C.
Summary of the method: as §1

[3] = test system: MCL-1; assay: In vitro transcription-translation (IVTT) assay, MCL-1 reporter; conditions: HeLa S3 lysate, sfGFP/mCherry ratio, 2 hrs at 30° C.
Summary of the method: as §1

[4] = test system: BCL-2; assay: In vitro transcription-translation (IVTT) assay, BCL-2 reporter; conditions: HeLa S3 lysate, sfGFP/mCherry ratio, 2 hrs at 30° C.
Text: All reporter constructs have been cloned into the pT7CFE1-CHis plasmid (ThermoFisher #88860) using Gibson assembly procedures (NEB #E2611L). The parental pT7CFE1-CHis plasmid contains an EMCV IRES at the 5′UTR for translation initiation, a multiple-cloning site (MCS) for gene insertion, an optional C-terminal His-epitope tag, and polyA sequence in the 3′UTR to regulate mRNA stability. All reporters are designed to be inserted at the MCS to include a red fluorescent protein (mCherry), P2A self-cleaving peptide which releases the preceding mCherry protein product, and a fusion open reading frame containing a 3×FLAG epitope, a peptide sequence of interest (TEST), and green fluorescent protein (sfGFP).
Construct Plasmid Preparation: All plasmids are isolated from MACH1 cells (ThermoFisher) grown overnight in ampicillin-containing luria broth, and purified using ZymoPure Express Plasmid Midiprep Kit (Zymo Research). Constructs are sequenced verified and diluted to a working concentration of 110 ng/μL.
HeLa S3 Lysate Preparation: HeLa S3 cell pellets are acquired from Ipracell/Ipratech (Belgium) and shipped as 4 mL frozen cell pellets on dry ice for storage at −80° C. until use. The procedure for lysate preparation is as follows. Prepare 1× Lysis Buffer, cold and stored on ice:
(§2) Each preparation takes 8 cell pellets (4 ml packed volume each, approximately 1.0×10^9 cells per pellet). Thaw cell pellets from −80° C. on ice for 90 mins. Lay pellets horizontally on top of the ice and rotate every 30 mins to ensure even thawing. Once thawed, add 4 mL of cold lysis buffer to each pellet, and using a serological pipet, gently pipet up and down to break up clumps. Incubate resuspended cells in ice for an additional 30 mins (plunged into ice). During 30 min incubation, rinse and RNase-zap (Ambion) glass dounces (use loose pestle “A”), gently dry and place on ice until needed. Prepare RNase-free Eppendorf tubes for spinning and for batch storage. Add batch labels to 1.5-1.7 mL RNase-free microcentrifuge tubes (labeling scheme below). Each batch will have an extra 1.5-1.7 mL RNase-free microcentrifuge tube for 40 μL of lysate, label the top of this tube (labeling scheme below). After 30 min incubation, transfer all 8 mL of cell pellet to dounce. Cell lysis is complete after douncing 100 times. Aliquot cell lysis into 1.5-1.7 mL temporary-microcentrifuge tubes. Place tubes in centrifuge with “fins” out, and spin at 1,200×g for 5 mins. After the first spin use a 1 mL pipet to resuspend each tube and repeat spin. This acts as an additional lysis step, is more vigorous and increases lysate yield. During second spin get liquid N2 and a fresh conical tube on ice. After spin is complete, transfer supernatant (lysate) from microcentrifuge tubes into the 50 mL conical tube and keep on ice. Repeat steps 10-14 for all other cell pellets until completed. Once all cell lysate has been transferred to the 50 mL conical tube pipet to mix so the solution is homogenous. Transfer 1 mL of lysate into batch-labeled microcentrifuge tubes and flash freeze in liquid nitrogen. Be sure to pipet up and down to mix throughout transfer step. Place all tubes in the […] for long-term storage.
In vitro transcription-translation assay setup: Each assay includes a master mix containing lysate and shared components, a 96-well plate containing compound titrations for testing, a 96-well DNA plate with reporter constructs to be tested, 96-well skirted PCR plates, and 96-well flat-bottom, black, fluorescent assay plates. […]

[5] = test system: KRAS G12D; assay: In vitro transcription-translation (IVTT) assay, KRAS G12D reporter; conditions: HeLa S3 lysate, sfGFP/mCherry ratio, 2 hrs at 30° C.
Summary of the method: as §1

[6] = test system: ALK; assay: In vitro transcription-translation (IVTT) assay, ALK reporter; conditions: HeLa S3 lysate, sfGFP/mCherry ratio, 2 hrs at 30° C.
Summary of the method: as §1

[7] = test system: CCNTB1; assay: In vitro transcription-translation (IVTT) assay, CCNTB1 reporter; conditions: HeLa S3 lysate, 2 hrs at 30° C.
Summary of the method: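 HeLa S3 lysate-based coupled transcription-translation reactions with reporter plasmids, compounds in half-log dilutions (30 μM−0.1 μM, in DMSO), 2 h at 30° C. sfGFP/mCherry ratio, corrected for no-DNA background, normalized to no-drug control and fitted for IC50.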

[8] = test system: CCNE1; assay: In vitro transcription-translation (IVTT) assay, CCNE1 reporter; conditions: HeLa S3 lysate, 2 hrs at 30° C.
Description: as §2
In vitro transcription-translation assay setup: Each assay includes a master mix containing lysate and shared components, a 96-well plate containing compound titrations for testing, a 96-well DNA plate with reporter constructs to be tested, 96-well skirted PCR plates, and 96-well flat-bottom, black, fluorescent assay plates. Reaction materials setup: (A) Master mix—15 mL conical tube (3 mL of HeLa S3 Lysate described above; 0.6 mL of ThermoFisher Accessory Proteins (#88882); 1.2 ml of ThermoFisher Reaction Mix (#88882); 0.54 mL of nuclease-free Water); (B) 96-Well Master Mix+Compound Plate (Half-log dilutions (30 μM−0.1 μM) of 4 compounds of interest are prepared in 100% DMSO); 96-Well DNA Plate (Five DNA constructs are plated into single columns within the plate. Row 1 of the column contains nuclease free H2O, all other wells contain 110 ng/μL plasmid DNA). Reactions are started by mixing 155 μL of master mix and 3.5 μL of compound serial dilutions, then 9.1 μL of master mix+compound mixture is aliquoted across 5 96-well plates. Reactions begin with final addition of 2 μL of DNA for a 11.1 μL reaction volume in each well. The entire plate is sealed, and incubated for 2 hrs at 30° C. After 2 hrs, quench the assay using 45 μL of PBS, and transfer 50 μL to a flat-bottom black microplate Quantify the sfGFP and mCherry signals from each well on each plate, taking 3 reads of each plate, and perform data analysis below.
In vitro transcription-translation assay data analysis: Each plate is read three times in channels for both sfGFP and mCherry signals. The average signal across these 3 reads is then calculated for further analysis. Control wells containing no DNA reporter are subtracted from reporter wells in the same column to remove auto-fluorescence of the lysate. Then, the ratio of sfGFP/mCherry is calculated per well, and these ratios are averaged across the triplicate experiments on the same plate. Finally, the ratio of each titration concentration is normalized to the no drug control to create the normalized stalling metric. […]

[9] = IVTT assay, MYC reporter, normalized sfGFP/mCherry ratio, half-log dilutions 30 μM-0.1 μM

pIC50 ([1]; sfGFP/mCherry ratio)	pIC50 ([2]; sfGFP/mCherry ratio)	pIC50 [3]	pIC50 [4]	pIC50 [5]	pIC50 [6]	pIC50 [7]	pIC50 ([2]; IVTT)	pIC50 [8]	Compound	pIC50 [1, 9]
> 5.00	> 5.00	> 5.00	> 5.00	> 5.00	> 5.00	–	–	–	COc1ccc(C[C@H]2NC[C@H](O)[C@H]2OC(=O)NCc2c[nH]cn2)cc1 [V187192, (2R,3S,4S)-4-hydroxy-2-[(4-methoxyphenyl)methyl]pyrrolidin-3-yl N-(1H-imidazol-4-ylmethyl)carbamate]	–
> 5.00	> 5.00	> 5.00	> 5.00	> 5.00	> 5.00	–	–	–	COc1ccc(C[C@H]2NC[C@H](O)[C@H]2OC(=O)NCCc2cnc[nH]2)cc1 [V187593, (2R,3S,4S)-4-hydroxy-2-[(4-methoxyphenyl)methyl]pyrrolidin-3-yl N-[2-(3H-imidazol-4-yl)ethyl]carbamate]	–
> 5.00	–	> 5.00	> 5.00	> 5.00	> 5.00	–	–	–	COc1ccc(C[C@H]2NC[C@H](O)[C@H]2OC(=O)NCCc2ccncc2)cc1 [V187807, (2R,3S,4S)-4-hydroxy-2-[(4-methoxyphenyl)methyl]pyrrolidin-3-yl N-[2-(pyridin-4-yl)ethyl]carbamate]	–
–	–	–	–	–	–	> 5.00	4.52 to 4.70	4.70 to 5.00	COc1ccc(C[C@H]2NC[C@H](O)[C@H]2OC(=O)NCCNc2cc[nH]n2)cc1 [V187944, (2R,3S,4S)-4-hydroxy-2-[(4-methoxyphenyl)methyl]pyrrolidin-3-yl N-[2-(1H-pyrazol-3-ylamino)ethyl]carbamate]	4.70 to 5.00
< 4.52	< 4.52	< 4.52	< 4.52	–	–	–	–	–	COc1ccc(C[C@H]2NC[C@H](O)[C@H]2OC(=O)NCC(=O)O)cc1 [V188016]	–
–	–	–	–	–	–	> 5.00	> 5.00	> 5.00	COc1ccc(C[C@H]2NC[C@H](O)[C@H]2OC(=O)NCc2ccnc(C(F)(F)F)c2)cc1 [V188050, (2R,3S,4S)-4-hydroxy-2-[(4-methoxyphenyl)methyl]pyrrolidin-3-yl N-{[2-(trifluoromethyl)pyridin-4-yl]methyl}carbamate]	> 5.00
> 5.00	> 5.00	> 5.00	> 5.00	–	–	–	–	–	COc1ccc(C[C@H]2NC[C@H](O)[C@H]2OC(=O)NCc2ccnc(OC)c2)cc1 [V188051, (2R,3S,4S)-4-hydroxy-2-[(4-methoxyphenyl)methyl]pyrrolidin-3-yl N-[(2-methoxypyridin-4-yl)methyl]carbamate]	–
4.70 to 5.00	4.52 to 4.70	< 4.52	< 4.52	–	–	–	–	–	COc1ccc(C[C@H]2NC[C@H](O)[C@H]2OC(=O)NCCNc2ncnc3nc[nH]c23)cc1 [V188060, (2R,3S,4S)-4-hydroxy-2-[(4-methoxyphenyl)methyl]pyrrolidin-3-yl N-[2-(7H-purin-6-ylamino)ethyl]carbamate]	–

Further lines, the molecule ahead of its results:

Compound	pIC50 ([1]; sfGFP/mCherry ratio)	pIC50 ([2]; sfGFP/mCherry ratio)	pIC50 [3]	pIC50 [4]	pIC50 [5]	pIC50 [6]	pIC50 [7]	pIC50 ([2]; IVTT)	pIC50 [8]	pIC50 [1, 9]
COc1ccc(C[C@H]2NC[C@H](O)[C@H]2OC(=O)NCc2ccn[nH]2)cc1 [V187321, (2R,3S,4S)-4-hydroxy-2-[(4-methoxyphenyl)methyl]pyrrolidin-3-yl N-(2H-pyrazol-3-ylmethyl)carbamate; trifluoroacetic acid]	> 5.00	> 5.00	> 5.00	> 5.00	> 5.00	> 5.00	–	–	–	–
COc1ccc(C[C@H]2NC[C@H](O)[C@H]2OC(=O)NCCc2cc[nH]n2)cc1 [V187698, (2R,3S,4S)-4-hydroxy-2-[(4-methoxyphenyl)methyl]pyrrolidin-3-yl N-[2-(1H-pyrazol-3-yl)ethyl]carbamate; trifluoroacetic acid]	> 5.00	> 5.00	> 5.00	> 5.00	> 5.00	> 5.00	–	–	–	–
COc1ccc(C[C@H]2NC[C@H](O)[C@H]2OC(=O)NCc2ccc(-c3ccccc3)cc2)cc1 [V187977, (2R,3S,4S)-4-hydroxy-2-[(4-methoxyphenyl)methyl]pyrrolidin-3-yl N-{[1,1′-biphenyl]-4-ylmethyl}carbamate]	< 4.52	< 4.52	< 4.52	< 4.52	–	–	–	–	–	–
COc1ccc(C[C@H]2NC[C@H](O)[C@H]2OC(=O)NCc2cccc(-c3ccccc3)c2)cc1 [V187982, (2R,3S,4S)-4-hydroxy-2-[(4-methoxyphenyl)methyl]pyrrolidin-3-yl N-{[1,1′-biphenyl]-3-ylmethyl}carbamate]	< 4.52	< 4.52	< 4.52	< 4.52	–	–	–	–	–	–
COc1ccc(C[C@H]2NC[C@H](O)[C@H]2OC(=O)NCC(=O)NCC(N)=O)cc1 [V188021, (2R,3S,4S)-4-hydroxy-2-[(4-methoxyphenyl)methyl]pyrrolidin-3-yl N-[(carbamoylmethylcarbamoyl)methyl]carbamate]	4.52 to 4.70	4.52 to 4.70	4.70 to 5.00	4.52 to 4.70	–	–	–	–	–	–
COc1ccc(C[C@H]2NC[C@H](O)[C@H]2OC(=O)NCCO[C@@H]2CCNC2)cc1 [V188071, (2R,3S,4S)-4-hydroxy-2-[(4-methoxyphenyl)methyl]pyrrolidin-3-yl N-{2-[(3R)-pyrrolidin-3-yloxy]ethyl}carbamate]	–	–	–	–	–	–	> 5.00	4.70 to 5.00	> 5.00	4.70 to 5.00
COc1ccc(C[C@H]2NC[C@H](O)[C@H]2OC(=O)NCC23CNC(C2)C3)cc1 [V188152, (2R,3S,4S)-4-hydroxy-2-[(4-methoxyphenyl)methyl]pyrrolidin-3-yl N-{2-azabicyclo[2.1.1]hexan-4-ylmethyl}carbamate]	–	–	–	–	–	–	> 5.00	< 4.52	4.70 to 5.00	–
